Reference: patent US10279023B2, “Mucin-associated surface protein as a vaccine against chagas disease” (BOARD OF REGENTS, THE UNIVERSITY OF TEXAS SYSTEM, priority 2013, dated 2019)

Key:
[1] = test system: IL-4, IL-10, IL-12, IL-17A, and IFN-gamma; test: Evaluation of cytokines (Mouse Inflammatory Cytokines Multi-analyte ELISArray) in immunized, challenged mice; format: in vivo; conditions: without the aid of any additional adjuvants
Description: (§1) C3H/HeNsd female mice (6-8 weeks old) were separated in five groups (4 mice/group). The immunizations were performed via intraperitoneal (i.p.) injection. One control group was immunized with phosphate buffer saline (PBS, placebo). Two control groups for the adjuvants were given 0.9% aluminum hydroxide (AIOH) and KLH at 10 μg/mouse. Two experimental groups were administered 20 μg/mouse of MASPsyn alone and combined with 0.9% aluminum hydroxide, respectively. A total of 3 immunizations every 10-15 days were administered.
Four weeks post-infection, the blood was collected by tail-bleeding and a pool of serum from each experimental group was obtained as described above. Cytokines were measured using Mouse Inflammatory Cytokines Multi-analyte ELISArray Kit. FIG. 2 illustrates cytokine profiles of immunized mice following parasite challenge. Anti-inflammatory (IL-4 and IL-10) and proinflammatory (IFN-γ, IL-12, and IL-17) cytokines were assayed in triplicate by ELISA four weeks after the last immunization and approximately two weeks after the challenge. Each bar represents the mean value±SEM (n=4 animals per group) for each treatment.

C3H/HeNsd female mice = test: Evaluation of the humoral immune response (serum antibody titers by ELISA after immunization); format: in vivo; conditions: immunized mice, without the aid of any additional adjuvants
Description: as §1
Ten days after the last immunization blood was collected by tail bleeding and serum was separated from blood by centrifugation at 2,000 rpm for 10 min. The serum antibody titers were determined by an ELISA. Human Chagasic and normal serum were also tested for antibody titers against MASPsyn.

[2] = test system: T. cruzi Y strain trypomastigotes; test: Challenge - parasitemia and survival of immunized mice; format: in vivo, Trypanosoma cruzi; conditions: without the aid of any additional adjuvants
Description: as §1
Ten days after last immunization mice were inoculated via intraperitoneal injection with 1×10^5 trypomastigote Y strain, the parasitemia and survival were monitored. The parastemia were evaluated every day for the first 12 days then every third day for a total of 21 days. FIG. 1 illustrates the resulting parasitemia and survival for each of the control and experimental groups.

Sequence: DAENPGGEVFNDNKKGLSRV (listed as Trypanosoma cruzi) [MASPsyn]
- cytokine (e.g., IL-4, IL-10, IL-12, IL-17A, and IFN-gamma) production [1]: able to stimulate
- antibody production (C3H/HeNsd female mice): able to stimulate
- survivability of immunized-infected mice [2]: increase survivability
